Measured values reported in patent publication US9464064B2, “HCV helicase inhibitors and methods of use thereof” (University of Kansas, priority 2011, dated 2016).

Target: T1, HCV NS3 helicase NS3h_1b(con1) (Hepatitis C virus genotype 1b, UniProt Q9WMX2)
T1 construct: truncated C-terminally His-tagged NS3 proteins lacking the N-terminal protease, called NS3h; His-tag (C); made in house
Assay: MBHA screen of NCI mechanistic set library at 20 μM (percent inhibition, compound interference)
Type: biochemical
Details: compounds at 20 μM; for Inh. (%) (Inhibition): calculated from Equation 1
Summary of the method: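 Molecular beacon-based DNA unwinding assay; compounds screened at 20 μM in triplicate, with DMSO-only negative and 500 nM dT20 positive controls. Fluorescence (ex 643/em 670 nm) was read before and 30 min after adding ATP to 1 mM. Percent inhibition came from the change relative to DMSO controls; interference from pre-ATP fluorescence versus DMSO controls.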

[1] = assay interference calculated with Equation 2 (fluorescence vs DMSO-only controls before ATP)
[2] = MBHA with DNA substrate, assay interference calculated with Equation 2

T1 sequence (Q9WMX2 1192-1657): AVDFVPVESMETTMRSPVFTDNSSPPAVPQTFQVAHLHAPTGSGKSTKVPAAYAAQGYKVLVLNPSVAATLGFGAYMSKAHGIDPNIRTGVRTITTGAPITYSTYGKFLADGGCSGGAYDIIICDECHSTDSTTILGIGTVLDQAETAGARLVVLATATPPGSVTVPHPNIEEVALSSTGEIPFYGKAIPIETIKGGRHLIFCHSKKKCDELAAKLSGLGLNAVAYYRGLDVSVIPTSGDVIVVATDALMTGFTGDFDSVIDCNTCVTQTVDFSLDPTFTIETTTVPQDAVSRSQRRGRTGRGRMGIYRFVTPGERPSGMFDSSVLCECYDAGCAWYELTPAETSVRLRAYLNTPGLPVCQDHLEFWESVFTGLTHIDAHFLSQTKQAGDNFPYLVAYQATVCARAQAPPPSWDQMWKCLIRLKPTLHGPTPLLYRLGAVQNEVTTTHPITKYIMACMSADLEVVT

## Cc1nc(-c2cccnc2)sc1C(=O)/C=C/c1ccc(Cl)cc1Cl [Compound 640580]
MBHA with a DNA substrate
  Inh. (%) (Inhibition): −32.9%
[1]
  Int.* (Ratio) (Interference): 1.09 Ratio

## Cc1nc(-n2nc(-c3ccccc3)cc2-c2ccccc2)sc1C(=O)/C=C/c1ccc(Cl)c(Cl)c1 [Compound 640584]
MBHA with a DNA substrate
  Inh. (%) (Inhibition): 9.6%
[1]
  Int.* (Ratio) (Interference): 0.90 Ratio

## CC1=CC(C)(C)N=C2SC(c3ccc(N)cc3)=NN12 [Compound 640624]
MBHA with a DNA substrate
  Inh. (%) (Inhibition): −4.2%
[1]
  Int.* (Ratio) (Interference): 1.11 Ratio

## S=C(Nc1ccccc1)N(/N=C/C=C/c1ccccc1)c1nnc(-c2ccccc2)c(-c2ccccc2)n1 [Compound 640637]
MBHA with a DNA substrate
  Inh. (%) (Inhibition): −3.0%
[1]
  Int.* (Ratio) (Interference): 0.86 Ratio

## BrC(/C=N/Nc1nnc(-c2ccccc2)c(-c2ccccc2)n1)C(Br)c1ccccc1 (stereo not shown) [Compound 640638]
[2]
  Int.* (Ratio) (Interference): 0.93 Ratio
MBHA with DNA substrate
  Inh. (%) (Inhibition): −7.0%

## N#Cc1ccccc1NC(=O)C(=O)C(C(=O)c1ccccc1F)C1OC(=O)c2ccccc21 (stereo not shown) [Compound 640974]
MBHA with a DNA substrate
  Inh. (%) (Inhibition): −33.1%
[1]
  Int.* (Ratio) (Interference): 0.87 Ratio

## Cc1ccc(C)c(NC(=O)C(=O)C(C(=O)c2ccc3ccccc3c2)C2OC(=O)c3ccccc32)c1 (stereo not shown) [Compound 640985]
[2]
  Int.* (Ratio) (Interference): 0.97 Ratio
MBHA with DNA substrate
  Inh. (%) (Inhibition): −10.5%

## Cc1ccccc1NC(=O)C(=O)C(C(=O)c1ccccc1F)C1OC(=O)c2ccccc21 (stereo not shown) [Compound 641228]
MBHA with a DNA substrate
  Inh. (%) (Inhibition): −39.7%
[1]
  Int.* (Ratio) (Interference): 0.92 Ratio

## O=C(NC1=C(Cl)C(=O)c2ccccc2C1=O)C(=O)C(C(=O)c1ccc2ccccc2c1)C1OC(=O)c2ccccc21 (stereo not shown) [Compound 641233]
[2]
  Int.* (Ratio) (Interference): 0.91 Ratio
MBHA with DNA substrate
  Inh. (%) (Inhibition): −13.1%

## COC(=O)c1ccccc1NC(=O)C(=O)CC(=O)c1ccccc1NC1=CC(=O)C(=O)c2ccccc21 [Compound 641240]
[2]
  Int.* (Ratio) (Interference): 0.88 Ratio
MBHA with DNA substrate
  Inh. (%) (Inhibition): −14.8%

## O=C(CC(=O)c1ccccc1NC1=Cc2ccccc2C(=O)C1=O)C(=O)NC1=C(Cl)C(=O)c2ccccc2C1=O [Compound 641245]
[2]
  Int.* (Ratio) (Interference): 0.89 Ratio
MBHA with DNA substrate
  Inh. (%) (Inhibition): −13.7%

## O=C1C=C(Nc2ccccc2C(=O)CC(=O)C(=O)Nc2ccc(Cl)c(Cl)c2)c2ccccc2C1=O [Compound 641250]
[2]
  Int.* (Ratio) (Interference): 0.95 Ratio
MBHA with DNA substrate
  Inh. (%) (Inhibition): −13.6%

## O=C1C=C(Nc2ccccc2C(=O)CC(=O)C(=O)Nc2ccc(Cl)cc2)c2ccccc2C1=O [Compound 641253]
MBHA with a DNA substrate
  Inh. (%) (Inhibition): −34.2%
[1]
  Int.* (Ratio) (Interference): 0.95 Ratio

## COc1ccc(/C(=N/O)C(c2ccc(OC)cc2)C2C(=O)Oc3ccccc32)cc1 (stereo not shown) [Compound 641607]
[2]
  Int.* (Ratio) (Interference): 1.03 Ratio
MBHA with DNA substrate
  Inh. (%) (Inhibition): 29.4%

## CCc1cccc(C(C)C)c1NC(=O)/C(=N\NC(N)=O)C(C(=O)OC)c1cnc2ccccc2n1 (stereo not shown) [Compound 642033]
[2]
  Int.* (Ratio) (Interference): 0.99 Ratio
MBHA with DNA substrate
  Inh. (%) (Inhibition): 1.4%

## COC(=O)C(=O)C(C(=O)C(=O)Nc1cc(C)ccc1C)c1nc2ccc(C(=O)c3ccccc3)cc2[nH]c1=O (stereo not shown) [Compound 642040]
MBHA with a DNA substrate
  Inh. (%) (Inhibition): −3.2%
[1]
  Int.* (Ratio) (Interference): 0.90 Ratio

## Cc1nc(C(N)=S)sc1C(=O)CC(=O)C(=O)Nc1c(C(C)C)cccc1C(C)C [Compound 642048]
[2]
  Int.* (Ratio) (Interference): 0.99 Ratio
MBHA with DNA substrate
  Inh. (%) (Inhibition): −11.3%

## O=C(c1nc2ccc(Cl)cc2[nH]c1=O)C(O)c1ccc2c(c1)OCO2 (stereo not shown) [Compound 642649]
[2]
  Int.* (Ratio) (Interference): 1.05 Ratio
MBHA with DNA substrate
  Inh. (%) (Inhibition): −11.2%

## COc1ccc(/C=C\c2cc(OC)c(OC)c(OC)c2)cc1OP(=O)(O)O.N [Compound 643001]
MBHA with a DNA substrate
  Inh. (%) (Inhibition): −19.4%
[1]
  Int.* (Ratio) (Interference): 0.96 Ratio

## N#CC(C#N)=Cc1ccc(Oc2ccccc2)cc1 [Compound 643028]
[2]
  Int.* (Ratio) (Interference): 0.96 Ratio
MBHA with DNA substrate
  Inh. (%) (Inhibition): −13.0%

## N#CC(C#N)=Cc1cccc(Oc2ccccc2)c1 [Compound 643031]
[2]
  Int.* (Ratio) (Interference): 1.08 Ratio
MBHA with DNA substrate
  Inh. (%) (Inhibition): −0.1%

## O=C1c2ccccc2C(=O)C1C(c1ccc([N+](=O)[O-])cc1)C1C(=O)c2ccccc2C1=O [Compound 643148]
MBHA with a DNA substrate
  Inh. (%) (Inhibition): −20.3%
[1]
  Int.* (Ratio) (Interference): 0.98 Ratio

## CN(C)c1ccc(/C=C2\CCc3ccccc3C2=O)cc1Br [Compound 643162]
[2]
  Int.* (Ratio) (Interference): 1.02 Ratio
MBHA with DNA substrate
  Inh. (%) (Inhibition): −2.2%

## CN(C)c1ccc(/C=C2\Cc3ccccc3C2=O)cc1Br [Compound 643163]
[2]
  Int.* (Ratio) (Interference): 1.09 Ratio
MBHA with DNA substrate
  Inh. (%) (Inhibition): −12.3%

## CN(C)c1ccc(/C=C/C(=O)c2ccccc2)cc1Br [Compound 643164]
[2]
  Int.* (Ratio) (Interference): 0.86 Ratio
MBHA with DNA substrate
  Inh. (%) (Inhibition): 14.9%

## COc1ccc(/C=C2\Cc3ccccc3C2=O)cc1OC [Compound 643174]
[2]
  Int.* (Ratio) (Interference): 1.07 Ratio
MBHA with DNA substrate
  Inh. (%) (Inhibition): −9.6%

## COc1ccc(/C=C2\CCc3ccccc3C2=O)cc1OC [Compound 643175]
[2]
  Int.* (Ratio) (Interference): 0.93 Ratio
MBHA with DNA substrate
  Inh. (%) (Inhibition): −17.5%

## N#C/C(=C\c1ccc2ccccc2c1)C(=O)c1ccccc1 [Compound 643186]
MBHA with a DNA substrate
  Inh. (%) (Inhibition): −21.0%
[1]
  Int.* (Ratio) (Interference): 1.04 Ratio

## CN(C)c1ccc(/C=C/C(=O)[O-])cc1.CN(C)c1ccc(/C=C/C(=O)[O-])cc1.[Cu+2] [Compound 643351]
MBHA with a DNA substrate
  Inh. (%) (Inhibition): −20.4%
[1]
  Int.* (Ratio) (Interference): 0.89 Ratio

## CCOC(=O)/C(=C/c1ccc(N(C)C)cc1)N(CC)CC [Compound 643774]
[2]
  Int.* (Ratio) (Interference): 0.90 Ratio
MBHA with DNA substrate
  Inh. (%) (Inhibition): 14.6%

## COc1ccc(/C=C/c2cc(OC)c(OC)c(OC)c2)cc1OP(=O)(O)O [Compound 643812]
MBHA with a DNA substrate
  Inh. (%) (Inhibition): −5.7%
[1]
  Int.* (Ratio) (Interference): 0.91 Ratio

## CCCCCCCCCCCCCCCCCCN(C)C(COC)COP(=O)([O-])OCC[N+](C)(C)C (stereo not shown) [Compound 643826]
MBHA with a DNA substrate
  Inh. (%) (Inhibition): −3.8%
[1]
  Int.* (Ratio) (Interference): 0.89 Ratio

## CCCC/C=C/C=C/C=C/CCCCCCCC(=O)OCC(COC(=O)CCCCCCC/C=C/C1C=CC(CCCC)C(C(=O)O)C1C(=O)O)OC(=O)CCCCCCC/C=C/C=C/C=C/CCCC.OCCNCO (stereo not shown) [Compound 643834]
[2]
  Int.* (Ratio) (Interference): 0.88 Ratio
MBHA with DNA substrate
  Inh. (%) (Inhibition): −1.3%

## CCOC(=O)C1=C(C)NC(=S)NC1c1ccccc1 (stereo not shown) [Compound 643910]
MBHA with a DNA substrate
  Inh. (%) (Inhibition): −21.3%
[1]
  Int.* (Ratio) (Interference): 1.06 Ratio

## Cc1ccccc1NC(=O)C(=O)C(c1cnc2ccc([N+](=O)[O-])cc2n1)[N+](=O)[O-] (stereo not shown) [Compound 644735]
[2]
  Int.* (Ratio) (Interference): 0.94 Ratio
MBHA with DNA substrate
  Inh. (%) (Inhibition): 17.3%
